In patent publication US20180071317A1, “USE OF AGENTS THAT ALTER THE PERITUMORAL ENVIRONMENT FOR THE TREATMENT OF CANCER” (SERVICIO ANDALUZ DE SALUD, priority 2011, published 2018):

Legend:
[1] = tested on: fibroblasts of tumors produced by tumor cell line of human melanoma (MEL HO); assay: Marker expression (IHC) in fibroblasts of tumor or peritumoral area, mouse model, MEL HO; assay type: in vivo; details: MEL HO tumors in mice, 30 mg/kg/day oral, 7 days
Procedure: (§1) In vitro tests conducted in Example 5 are now carried out in an experimental model in mice in vivo. […] Subsequently, the expression in fibroblasts tumoral and peritumoral area of molecular markers associated with progression and maintenance of tumors: TGF-α, TGF-β1, TGF-β2, TGF-β3, MMP-7, MMP-11, MMP-14 were analyzed by immunohistochemistry.
(§2) Were injected with 2×10^7 cells tumors (corresponding, in each case to each of the tumor types as specified in Table 9) in 200 of PBS subcutaneously μl. […] Mice were randomized into two groups when the tumors reached a volume of 75 mm^3 One group was treated with non-peptide receptor antagonists NK1 and the other with placebo 200μ1. […] Tumors and samples of non-neoplastic stromal areas remote from the tumor were halved, formalin fixed (4%) and then were included in paraffin blocks for analysis by immunohistochemistry.
(§3) The expression on fibroblast cells obtained in the animal model was analyzed by immunohistochemistry, of the above markers: TGF-α, TGF-β1, TGF-β2, TGF-β3, MMP-7, MMP-1 1, MMP-14MP-14. Tables 32 to 35 depict the type of label used and the average percentage of fibroblasts present in non-tumor areas, tumor and peritumoral (±SD) which were expressing the marker shown in each of the tumor types developed from of the different cell lines used. This process was realized in mice treated with non-peptide antagonists of NK1 receptor and in untreated animals (control).

[2] = tested on: fibroblasts (PHF) co-cultivated with tumor cell lymphoblastic leukemia B (SDI); assay: Marker expression (IHC) in PHF co-cultured with SDI tumor cells; assay type: cell-based, human; details: PHF co-cultivated with SDI + SP + NK1 antagonist
Procedure: (§4) All cultures were maintained 48 hours, following which the same cells were included in paraffin blocks for subsequent analysis of the expression of different markers by immunohistochemistry (see Example 1). […] All experiments were carried out sixfold. Analyzed markers in fibroblast cells (stromal cells) were: TGF-α, TGF-β1, TGF-β2, TGF-β3, SPARC, MMP-3, MMP-7, MMP-9, MMP-11, MMP-13 and MMP-14.

[3] = tested on: fibroblasts of tumors produced by human glioma tumor line (GAMG); assay: Marker expression (IHC) in fibroblasts of tumor or peritumoral area, mouse model, GAMG; assay type: in vivo; details: GAMG tumors in mice, 30 mg/kg/day oral, 7 days
Procedure: as §1, §2, §3

[4] = tested on: fibroblasts (PHF) co-cultured with human neuroblastoma tumor cells (KELLY); assay: Marker expression (IHC) in PHF co-cultured with KELLY tumor cells; assay type: cell-based; details: PHF co-cultured with KELLY + SP + NK1 antagonist;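 also: Co-cultures grown on healthy-donor human blood plasma, run in six replicates, value is percentage of fibroblasts positive for each marker, compared with fibroblasts cultured alone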
Procedure: as §4

[5] = tested on: tumors from the tumor cell lines of Table 9; assay: Mean tumor volume in nude mice injected subcutaneously with human tumor cells; details: 30 mg/kg/day oral, 7 days
[6] = tested on: fibroblasts (PHF) co-cultured with tumor cells of human Edwing sarcoma (MHH-ES-1); assay: Marker expression (IHC) in PHF co-cultured with MHH-ES-1 tumor cells; assay type: cell-based; details: PHF co-cultured with MHH-ES-1 + SP + NK1 antagonist
Procedure: as §4

[7] = tested on: fibroblasts (PHF) co-cultured with tumor cells of human colon adenocarcinoma (SW-403); assay: Marker expression (IHC) in PHF co-cultured with SW-403 tumor cells; assay type: cell-based; details: co-culture with SW-403; SP 1 μM + antagonist 1 μM; 48 h
[8] = tested on: fibroblasts (PHF) co-cultured with tumor cells of lung carcinoma (A-427); assay: Marker expression (IHC) in PHF co-cultured with A-427 tumor cells; assay type: cell-based, human; details: co-culture with A-427 lung carcinoma; SP 1 μM + antagonist 1 μM; 48 h;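 also: cultures grown in human blood plasma from a healthy donor, value is the percentage of fibroblasts positive for each marker, six replicates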
Procedure: as §4

C[C@@H](O[C@H]1OCCN(Cc2n[nH]c(=O)[nH]2)[C@H]1c1ccc(F)cc1)c1cc(C(F)(F)F)cc(C(F)(F)F)c1 [Aprepitant]
fibroblasts expressing MMP-7 [1]: 0% | fibroblasts expressing MMP-11 [1]: 0% | fibroblasts expressing MMP-14 [1]: 0% | fibroblasts expressing TGF-α [1]: 0% | fibroblasts expressing TGF-β 1 [1]: 0% | fibroblasts expressing TGF-β 2 [1]: 0% | fibroblasts expressing TGF-β 3 [1]: 0% | cells expressing MMP-3 [2]: 0% | cells expressing MMP-7 [2]: 0% | cells expressing MMP-9 [2]: 0% | cells expressing MMP-11 [2]: 0% | cells expressing MMP-13 [2]: 0% | cells expressing MMP-14 [2]: 0% | cells expressing SPARC [2]: 0% | cells expressing TGF-α [2]: 0% | cells expressing TGF-β1 [2]: 0% | cells expressing TGF-β2 [2]: 0% | cells expressing TGF-β3 [2]: 0% | fibroblasts expressing MMP-7 [3]: 0% | fibroblasts expressing MMP-11 [3]: 0% | fibroblasts expressing MMP-14 [3]: 0% | fibroblasts expressing TGF-α [3]: 0% | fibroblasts expressing TGF-β 1 [3]: 0% | fibroblasts expressing TGF-β 2 [3]: 0% | fibroblasts expressing TGF-β 3 [3]: 0% | cells expressing MMP-3 [4]: 0% | cells expressing MMP-7 [4]: 0% | cells expressing MMP-9 [4]: 0% | cells expressing MMP-11 [4]: 0% | cells expressing MMP-13 [4]: 0% | cells expressing MMP-14 [4]: 0% | cells expressing SPARC [4]: 0% | cells expressing TGF-α [4]: 0% | cells expressing TGF-β1 [4]: 0% | cells expressing TGF-β2 [4]: 0% | cells expressing TGF-β3 [4]: 0% | Mean tumor volume ([5]; B lymphoblastic leukemia (peripheral human B lymphoblastoid cells) SD1): 103 ± 8 | Mean tumor volume ([5]; Carcinoma of human non-small cell lung COR-L23): 102 ± 5 | Mean tumor volume ([5]; Carcinoma of human non-small cell lung H-1963): 98 ± 5 | Mean tumor volume ([5]; Carcinoma of human non-small cell lung HCC-44): 105 ± 7 | Mean tumor volume ([5]; Carcinoma of human small cell lung H-209): 104 ± 6 | Mean tumor volume ([5]; Carcinoma of human urinary bladder 5637): 102 ± 4 | Mean tumor volume ([5]; Human B lymphoma BC-1): 108 ± 5 | Mean tumor volume ([5]; Human Burkitt lymphoma CA-46): 109 ± 7 | Mean tumor volume ([5]; Human Fibrosarcoma HT-1080): 100 ± 4 | Mean tumor volume ([5]; Human Hodgkin lymphoma KM-H2): 101 ± 5 | Mean tumor volume ([5]; Human Rhabdomyosarcoma A-204): 102 ± 8 | Mean tumor volume ([5]; Human T-cell leukemia/NK YT): 106 ± 6 | Mean tumor volume ([5]; Human T-lymphoma DERL human Hodgkin 7Linfoma KM-H2): 105 ± 6 | Mean tumor volume ([5]; Human breast adenocarcinoma humano MCF-7): 95 ± 6 | Mean tumor volume ([5]; Human breast carcinoma MDA-MB-468): 99 ± 7 | Mean tumor volume ([5]; Human breast carcinoma MT-3): 109 ± 2 | Mean tumor volume ([5]; Human choriocarcinoma AC-1M32): 112 ± 4 | Mean tumor volume ([5]; Human colon carcinoma SW-403): 79 ± 4 | Mean tumor volume ([5]; Human endometrial carcinoma AN3-CA): 90 ± 4 | Mean tumor volume ([5]; Human endometrial stromal sarcoma ESS-1): 107 ± 4 | Mean tumor volume ([5]; Human folicular thyroid carcinoma TT2609-C02): 105 ± 7 | Mean tumor volume ([5]; Human gastric adenocarcinoma 23132/87): 77 ± 6 | Mean tumor volume ([5]; Human glioma GAMG): 108 ± 8 | Mean tumor volume ([5]; Human lung carcinoma A-427): 104 ± 4 | Mean tumor volume ([5]; Human lung carcinoma DV-90): 97 ± 3 | Mean tumor volume ([5]; Human lymphoblastic leukemia T BE-13): 102 ± 6 | Mean tumor volume ([5]; Human malignant fibrous histiocytoma U-2197): 102 ± 6 | Mean tumor volume ([5]; Human melanoma MEL HO): 104 ± 5 | Mean tumor volume ([5]; Human multiple myeloma COLO-677): 102 ± 6 | Mean tumor volume ([5]; Human neuroblastoma KELLY): 105 ± 6 | Mean tumor volume ([5]; Human neuroblastoma bone marrow SKN-BE 2): 97 ± 9 | Mean tumor volume ([5]; Human osteosarcoma CAL-72): 112 ± 4 | Mean tumor volume ([5]; Human ovarian adenocarcinoma EFO-27): 98 ± 7 | Mean tumor volume ([5]; Human ovarian carcinoma COLO-704): 101 ± 7 | Mean tumor volume ([5]; Human pancretic adenocarcinoma CAPAN-1): 86 ± 8 | Mean tumor volume ([5]; Human pancretic adenocarcinoma PA-TU 8902): 102 ± 7 | Mean tumor volume ([5]; Human papillary thyroid carcinoma metastasizing B-CPAP): 102 ± 4 | Mean tumor volume ([5]; Human prostate carcinoma 22RV1): 103 ± 5 | Mean tumor volume ([5]; Human retinoblastoma WERI-Rb-1): 99 ± 4 | Mean tumor volume ([5]; Human thyroid carcinoma 8505C): 105 ± 3 | Mean tumor volume ([5]; Human uterine cervix carcinoma KB): 103 ± 9 | Mean tumor volume ([5]; Melanoma humano, metástasis en ganglio linfático COLO 858): 109 ± 4 | Mean tumor volume ([5]; Sarcoma human Edwing MHH-ES-1): 103 ± 5 | Mean tumor volume ([5]; Transitional Carcinoma of human urinary bladder RT-4): 102 ± 6 | cells expressing MMP-3 [6]: 0% | cells expressing MMP-7 [6]: 0% | cells expressing MMP-9 [6]: 0% | cells expressing MMP-11 [6]: 0% | cells expressing MMP-13 [6]: 0% | cells expressing MMP-14 [6]: 0% | cells expressing SPARC [6]: 0% | cells expressing TGF-α [6]: 0% | cells expressing TGF-β1 [6]: 0% | cells expressing TGF-β2 [6]: 0% | cells expressing TGF-β3 [6]: 0% | PHF cells expressing MMP-3 [7]: 0% | PHF cells expressing MMP-7 [7]: 0% | PHF cells expressing MMP-9 [7]: 0% | PHF cells expressing MMP-11 [7]: 0% | PHF cells expressing MMP-13 [7]: 0% | PHF cells expressing MMP-14 [7]: 0% | PHF cells expressing SPARC [7]: 0% | PHF cells expressing TGF-α [7]: 0% | PHF cells expressing TGF-β1 [7]: 0% | PHF cells expressing TGF-β2 [7]: 0% | PHF cells expressing TGF-β3 [7]: 0% | PHF cells expressing MMP-3 [8]: 0% | PHF cells expressing MMP-7 [8]: 0% | PHF cells expressing MMP-9 [8]: 0% | PHF cells expressing MMP-11 [8]: 0% | PHF cells expressing MMP-13 [8]: 0% | PHF cells expressing MMP-14 [8]: 0% | PHF cells expressing SPARC [8]: 0% | PHF cells expressing TGF-α [8]: 0% | PHF cells expressing TGF-β1 [8]: 0% | PHF cells expressing TGF-β2 [8]: 0% | PHF cells expressing TGF-β3 [8]: 0%
